Assay results taken from US12606533B2, “3-phenylpropylamine derivative” (DAIICHI SANKYO COMPANY, LIMITED, priority 2023, dated 2026).

Tests used:
[1] = biological target: T1, SF-1 (Homo sapiens, UniProt Q13285); experiment: SF1 degradation induction in NCI-H295R SF-1-HiBiT cells (HiBiT DC50); type: cell-based; conditions: 24 hr, concentration that induces 50% degradation of SF-1
T1 construct: NCI-H295R SF-1-HiBiT cells with HiBiT tag knocked in at the endogenous SF1 locus; host or cells: NCI-H295R SF-1-HiBiT (knock-in at endogenous locus)
Experimental: NCI-H295R SF-1-HiBiT cells were seeded in a 384-well plate (Thermo Fisher Scientific Inc.) at 1×10^4 cells/50 μL/well and cultured at 37° C. in a 5% CO2 incubator for 24 hr. DMSO solutions of each compound were serially diluted with DMSO using a D300e Digital Dispenser (TECAN), added to a 384-well plate, and cultured in a 5% CO2 incubator at 37° C. for 24 hr. […] After completion of culture, the medium was discarded, and Nano-Glo (registered trade mark) HiBiT Lytic Detection System (Promega, Cat. No. N3040) was added at 20 μL/well and stirred with a plate mixer. Luminescence signals were then detected using a multimode plate reader (EnVision Xcite, PerkinElmer). The SF-1 protein degradation rate was calculated from the amount of luminescence (C) in the compound-free group and the amount of luminescence (T) in the compound-added group, based on the following formula.
The obtained data was analyzed using GraphPad Prism9 (GraphPad Software Inc.) or Genedata Screener (Genedata AG) to calculate the concentration that induces 50% degradation of SF-1 (DC50 value).

[2] = tested on: NCI-H295R cells; experiment: Proliferation inhibitory action on NCI-H295R (CellTiter-Glo, 7 days); type: cell-based, human; conditions: Homo sapiens, NCI-H295R, 168 h
Experimental: DMSO solutions of each compound were serially diluted with DMSO using a D300e Digital Dispenser (TECAN), and added to a 384-well plate (Thermo Fisher Scientific Inc.). NCI-H295R cells were seeded in a 384-well plate at 2×10^3 cells/40 μL/well and cultured for 7 days in a 37° C., 5% CO2 incubator. […] On the first day of culture (day 0) and the seventh day of culture (day 7), 10 μL/well of CellTiter-Glo (registered trademark) 2.0 Assay (Promega) was added, and the luminescence signal was detected using a multimode plate reader (EnVision, PerkinElmer). The cell proliferation rate was calculated from the luminescence amount on the day of compound addition (CO), the luminescence amount of the compound-free group after 7 days of culture (C7), and the luminescence amount of the compound-added group (T7), based on the following formula.

Structure (SMILES) | DC50 [1] | GI50 [2]
COc1ccc([C@]2(CCN(Cc3ccc(C4=CC[C@H](C(=O)N5CCC(Nc6ccc7c(c6)CN(C6CCC(=O)NC6=O)C7=O)CC5)CC4)cc3)CC(C)(C)C(F)(F)F)CCOC(C)(C)C2)cc1 (stereo partly drawn) [BO4, 3-{5-[(1-{[(4R)-4′-{[{2-[(4R)-4-(4-Methoxyphenyl)-2,2-dimethyltetrahydro-2H-pyran-4-yl]ethyl)(3,3,3-trifluoro-2,2-dimethylpropyl)amino]methyl}-2,3,4,5-tetrahydro[biphenyl]-4-yl]carbonyl}piperidin-4-yl)amino]-1-oxo-1,3-dihydro-2H-isoindol-2-yl}piperidine-2,6-dione] | 15 nM | 129 nM
COc1ccc([C@]2(CCN(Cc3ccc(C4=CCC(CC(=O)NCCNc5ccc6c(c5)n(C)c(=O)n6C5CCC(=O)NC5=O)CC4)cc3)CC(C)(C)C(F)(F)F)CCOC(C)(C)C2)cc1 (stereo partly drawn) [Example Y6, N-(2-{[1-(2,6-Dioxopiperidin-3-yl)-3-methyl-2-oxo-2,3-dihydro-1H-benzimidazol-5-yl]amino}ethyl)-2-(4′-{[{2-[(4R)-4-(4-methoxyphenyl)-2,2-dimethyltetrahydro-2H-pyran-4-yl]ethyl}(3,3,3-trifluoro-2,2-dimethylpropyl)amino]methyl}-2,3,4,5-tetrahydro[biphenyl]-4-yl)acetamide] | 12 nM | 199 nM
COc1ccc([C@]2(CCN(Cc3ccc(C4=CC[C@H](CN5CCN(C(=O)c6ccc7c8c6CCCn8c(=O)n7[C@H]6CCC(=O)NC6=O)CC5)CC4)cc3)CC(C)(C)C(F)(F)F)CCOC(C)(C)C2)cc1 [BF6, (3S)-3-{7-[(4-{[(4R)-4′-{[{2-[(4R)-4-(4-Methoxyphenyl)-2,2-dimethyltetrahydro-2H-pyran-4-yl]ethyl}(3,3,3-trifluoro-2,2-dimethylpropyl)amino]methyl}-2,3,4,5-tetrahydro[biphenyl]-4-yl]methyl}piperazin-1-yl)carbonyl]-2-oxo-5,6-dihydro-4H-imidazo[4,5,1-ij}quinolin-1(2H)-yl}piperidine-2,6-dione] | 10 nM | 75 nM

Molecules with a lower DC50 [1], results first:

DC50 [1] | GI50 [2] | Structure (SMILES)
9.1 nM | 86 nM | COc1ccc([C@]2(CCN(Cc3ccc(C4=CC[C@H](C(=O)N5CC(Nc6ccc7c8c6CCCn8c(=O)n7C6CCC(=O)NC6=O)C5)CC4)c(F)c3)CC(C)(C)C(F)(F)F)CCOC(C)(C)C2)cc1 (stereo partly drawn) [BW3, 3-{7-[(1-{[(4R)-2′-Fluoro-4′-{[{2-[(4R)-4-(4-methoxyphenyl)-2,2-dimethyltetrahydro-2H-pyran-4-yl]ethyl}(3,3,3-trifluoro-2,2-dimethylpropyl)amino]methyl}-2,3,4,5-tetrahydro[biphenyl]-4-yl]carbonyl}azetidin-3-yl)amino]-2-oxo-5,6-dihydro-4H-imidazo[4,5,1-ij]quinolin-1(2H)-yl}piperidine-2,6-dione]
4.5 nM | 28 nM | COc1ccc([C@]2(CCN(Cc3ccc(C4=CC[C@H](C(=O)N5CCN(Cc6ccc7c(c6)n(C)c(=O)n7C6CCC(=O)NC6=O)CC5)CC4)c(F)c3)CC(C)(C)C(F)(F)F)CCOC(C)(C)C2)cc1 (stereo partly drawn) [BQ4, 3-{5-[(4-{[(4R)-2′-Fluoro-4′-{[{2-[(4R)-4-(4-methoxyphenyl)-2,2-dimethyltetrahydro-2H-pyran-4-yl]ethyl}(3,3,3-trifluoro-2,2-dimethylpropyl)amino]methyl}-2,3,4,5-tetrahydro[biphenyl]-4-yl]carbonyl}piperazin-1-yl)methyl]-3-methyl-2-oxo-2,3-dihydro-1H-benzimidazol-1-yl}piperidine-2,6-dione]
3.1 nM | 43 nM | COc1ccc([C@]2(CCN(Cc3ccc(C4=CC[C@@H](C(=O)N5CCC(Nc6ccc7c8c6CCCn8c(=O)n7C6CCC(=O)NC6=O)CC5)CC4)c(F)c3)CC(C)(C)C(F)(F)F)CCOC(C)(C)C2)cc1 (stereo partly drawn) [BL4, 3-{7-[(1-{[(4S)-2′-Fluoro-4′-{[{2-[(4R)-4-(4-methoxyphenyl)-2,2-dimethyltetrahydro-2H-pyran-4-yl]ethyl)(3,3,3-trifluoro-2,2-dimethylpropyl)amino]methyl}-2,3,4,5-tetrahydro[biphenyl]-4-yl]carbonyl}piperidin-4-yl)amino]-2-oxo-5,6-dihydro-4H-imidazo[4,5,1-ij]quinolin-1(2H)-yl}piperidine-2,6-dione]
